Counter-ions that a name gives are not always drawn.
Each compound was assayed against T1, EZH2 within the PRC2 complex (Homo sapiens, UniProt Q15910) (assay: Assay Protocol 1: EZH2 methyltransferase scintillation proximity assay, mononucleosome substrate). Details: not given.
T1 construct: FLAG; made in house; host or cells: Sf9 cells
T1 sequence (Q15910 whole entry): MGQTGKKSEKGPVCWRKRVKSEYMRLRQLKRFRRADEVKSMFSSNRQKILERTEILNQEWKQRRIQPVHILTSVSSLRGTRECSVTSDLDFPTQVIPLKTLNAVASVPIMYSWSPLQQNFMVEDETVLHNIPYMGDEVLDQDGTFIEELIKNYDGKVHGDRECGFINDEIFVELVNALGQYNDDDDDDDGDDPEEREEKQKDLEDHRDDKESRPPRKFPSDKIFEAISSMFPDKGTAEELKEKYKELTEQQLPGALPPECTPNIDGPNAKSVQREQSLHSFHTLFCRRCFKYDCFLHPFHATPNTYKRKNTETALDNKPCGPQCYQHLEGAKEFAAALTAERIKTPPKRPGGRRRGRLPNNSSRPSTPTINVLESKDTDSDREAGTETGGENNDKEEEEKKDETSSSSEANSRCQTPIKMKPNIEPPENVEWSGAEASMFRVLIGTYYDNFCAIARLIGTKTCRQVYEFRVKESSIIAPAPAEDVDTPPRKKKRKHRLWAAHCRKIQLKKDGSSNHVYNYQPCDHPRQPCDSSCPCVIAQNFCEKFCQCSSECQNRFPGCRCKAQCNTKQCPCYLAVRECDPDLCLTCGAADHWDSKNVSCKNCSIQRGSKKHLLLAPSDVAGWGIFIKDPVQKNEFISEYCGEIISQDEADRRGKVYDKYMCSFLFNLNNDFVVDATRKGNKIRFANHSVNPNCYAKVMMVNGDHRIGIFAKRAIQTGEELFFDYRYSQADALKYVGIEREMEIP
T1 sequence (O75530 whole entry partner): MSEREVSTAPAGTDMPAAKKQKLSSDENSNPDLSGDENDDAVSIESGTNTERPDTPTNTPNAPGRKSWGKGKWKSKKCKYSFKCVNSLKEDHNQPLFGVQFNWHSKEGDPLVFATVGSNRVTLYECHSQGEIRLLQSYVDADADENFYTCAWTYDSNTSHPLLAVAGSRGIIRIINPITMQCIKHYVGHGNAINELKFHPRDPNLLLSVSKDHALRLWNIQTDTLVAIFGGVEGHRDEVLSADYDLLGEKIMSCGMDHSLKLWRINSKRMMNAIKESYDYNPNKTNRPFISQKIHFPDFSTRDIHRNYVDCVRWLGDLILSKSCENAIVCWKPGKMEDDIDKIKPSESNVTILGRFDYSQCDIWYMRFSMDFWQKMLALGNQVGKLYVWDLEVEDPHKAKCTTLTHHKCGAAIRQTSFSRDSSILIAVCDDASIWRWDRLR
T1 sequence (Q15022 whole entry partner): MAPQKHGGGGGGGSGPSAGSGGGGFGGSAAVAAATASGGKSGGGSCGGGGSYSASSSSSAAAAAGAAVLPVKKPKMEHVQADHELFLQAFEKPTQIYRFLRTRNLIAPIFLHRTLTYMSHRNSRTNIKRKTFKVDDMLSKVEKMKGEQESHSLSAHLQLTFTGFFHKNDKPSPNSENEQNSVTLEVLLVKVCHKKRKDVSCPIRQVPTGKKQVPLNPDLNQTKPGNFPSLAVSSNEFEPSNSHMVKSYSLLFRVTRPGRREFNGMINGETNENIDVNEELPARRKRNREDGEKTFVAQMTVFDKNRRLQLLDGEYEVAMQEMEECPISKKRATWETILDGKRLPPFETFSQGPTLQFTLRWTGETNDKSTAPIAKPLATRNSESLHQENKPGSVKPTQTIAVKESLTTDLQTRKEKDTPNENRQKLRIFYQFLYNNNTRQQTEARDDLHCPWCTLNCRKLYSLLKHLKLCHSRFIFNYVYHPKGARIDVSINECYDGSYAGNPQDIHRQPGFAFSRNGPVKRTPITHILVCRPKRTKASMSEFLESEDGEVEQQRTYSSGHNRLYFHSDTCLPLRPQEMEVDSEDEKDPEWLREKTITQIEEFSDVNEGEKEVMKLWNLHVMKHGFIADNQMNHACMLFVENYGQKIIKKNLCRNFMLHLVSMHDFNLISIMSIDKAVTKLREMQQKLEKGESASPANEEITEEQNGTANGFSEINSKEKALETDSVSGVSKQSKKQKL
T1 sequence (Q09028 whole entry partner): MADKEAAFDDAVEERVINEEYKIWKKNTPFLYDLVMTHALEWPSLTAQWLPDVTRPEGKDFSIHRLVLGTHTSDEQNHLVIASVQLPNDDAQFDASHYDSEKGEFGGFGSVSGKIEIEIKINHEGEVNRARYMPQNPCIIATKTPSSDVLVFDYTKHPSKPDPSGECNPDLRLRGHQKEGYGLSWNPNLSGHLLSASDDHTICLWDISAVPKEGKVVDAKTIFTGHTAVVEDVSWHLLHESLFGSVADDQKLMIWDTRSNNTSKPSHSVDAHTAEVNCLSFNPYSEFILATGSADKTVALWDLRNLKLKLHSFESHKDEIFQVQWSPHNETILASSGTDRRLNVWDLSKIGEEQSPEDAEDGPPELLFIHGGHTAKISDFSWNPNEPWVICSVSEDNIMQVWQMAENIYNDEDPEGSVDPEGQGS
T1 sequence (Q6ZN18 whole entry partner): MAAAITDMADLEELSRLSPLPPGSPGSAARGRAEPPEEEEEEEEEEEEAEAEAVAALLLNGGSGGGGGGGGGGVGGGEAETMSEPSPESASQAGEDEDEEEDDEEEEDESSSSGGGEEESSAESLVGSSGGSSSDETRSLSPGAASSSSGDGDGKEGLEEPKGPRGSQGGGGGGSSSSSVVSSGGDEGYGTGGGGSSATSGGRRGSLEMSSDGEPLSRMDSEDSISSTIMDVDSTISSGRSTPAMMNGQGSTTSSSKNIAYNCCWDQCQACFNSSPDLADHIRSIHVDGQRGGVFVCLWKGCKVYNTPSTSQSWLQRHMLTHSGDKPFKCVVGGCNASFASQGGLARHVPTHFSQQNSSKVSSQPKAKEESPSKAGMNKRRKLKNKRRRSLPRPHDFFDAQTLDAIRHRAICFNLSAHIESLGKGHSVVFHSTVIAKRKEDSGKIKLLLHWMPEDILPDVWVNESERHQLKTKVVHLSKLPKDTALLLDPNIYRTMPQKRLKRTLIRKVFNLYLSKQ
Assay type: biochemical
Protocol: Compounds contained herein were evaluated for their ability to inhibit the methyltransferase activity of EZH2 within the PRC2 complex. […] Mononucleosomes were captured on SPA beads and the resulting signal is read on a ViewLux plate reader. • 1. Prepare 10 mM stock of compounds from solid in 100% DMSO. • 2. […] Dispense 100 nL of compound from the dilution plate into reaction plates (Grenier Bio-One, 384-well, Cat#784075). Prepare the following solutions: • 1. 50 mM Tris-HCl, pH 8: Per 1 L of base buffer, combine 1 M Tris-HCl, pH 8 (50 mL) and distilled water (950 mL). • 2. 1× Assay Buffer: […] SPA Bead Suspension: […] Per 10 mL of 2× Substrate Solution, combine 1× Assay Buffer (9728.55 uL), 800 ug/mL mononucleosomes (125 uL), 1 mM cold SAM (4 uL), and 7.02 uM 3H-SAM (142.45 uL; 0.55 mCi/mL) to provide a final concentration of 5 ug/mL nucleosomes, 0.2 uM cold SAM, and 0.05 uM 3H-SAM. • 6. 2.67× Quench/Bead Mixture: Per 10 mL of 2.67× Quench/Bead Mixture, combine ddH2O (9358 uL), 10 mM cold SAM (267 uL), 40 mg/mL Bead Suspension (375 uL) to provide a final concentration of 100 uM cold SAM and 0.5 mg/mL SPA beads. • 1. Dispense 100 nL/well of 100× Compound to test wells (as noted above). • 2. […] • 1. Dispense 5 uL/well of 1× Assay Buffer to column 18 (low control reactions). • 2. Dispense 5 uL/well of 2× Enzyme Solution to columns 1-17, 19-24. • 3. Spin assay plates for ˜1 minute at 500 rpm. • 4. Stack the assay plates, covering the top plate. • 5. Incubate the compound/DMSO with the enzyme for 30 minutes at room temperature. • 6. Dispense 5 uL/well of 2× Substrate Solution to columns 1-24. • 7. Spin assay plates for ˜1 minute at 500 rpm. • 8. Stack the assay plates, covering the top plate. • 9. Incubate the assay plates at room temperature for 1 hour. • 1. Dispense 5 uL/well of the 3× Quench/Bead Mixture to columns 1-24. • 2. Seal the top of each assay plate with adhesive TopSeal. • 3. Spin assay plates for ˜1 minute at 500 rpm. • 4. […] • 1. Read the assay plates on the Viewlux Plate Reader utilizing the 613 nm emission filter with a 300 s read time. Reagent addition can be done manually or with automated liquid handler. The final DMSO concentration in this assay is 1%. The positive control is in column 6; negative control is in column 18. Final starting concentration of compounds is 100 μM. Percent inhibition was calculated relative to the DMSO control for each compound concentration and the resulting values were fit using standard IC50 fitting parameters within the ABASE data fitting software package.
Compound `Cc1cc2c(c(=O)[nH]1)CNC(=O)c1cc(Cl)cc(O[C@H]3CC[C@H](N)CC3)c1C/C=C\CC2` [Example 4, (Z)-10-((trans-4-aminocyclohexyl)oxy)-12-chloro-3-methyl-5,6,15,16-tetrahydrobenzo[c]pyrido[4,3-j][1]azacyclododecine-1,14(2H,9H)-dione hydrochloride] has an IC50 of 2510 nM.

Same assay, conditions: Assay Protocol 1; SPA, 3H-SAM, Histone H3 of mononucleosome purified from HeLa cells; 5-member PRC2 complex; read-out: EZH2 IC50
Compound `Cc1cc2c(c(=O)[nH]1)CNC(=O)c1cc(Cl)cc(O[C@H]3CC[C@H](N(C)C)CC3)c1C/C=C\CC2` [Example 5, (Z)-12-chloro-10-((trans-4-(dimethylamino)cyclohexyl)oxy)-3-methyl-5,6,15,16-tetrahydrobenzo[c]pyrido[4,3-j][1]azacyclododecine-1,14(2H,9H)-dione] has an IC50 of 2510 nM. Work on `CCN(c1cccc2c1C/C=C\CCc1cc(C)[nH]c(=O)c1CNC2=O)C1CCOCC1` [Example 7, (Z)-10-(ethyl(tetrahydro-2H-pyran-4-yl)amino)-3-methyl-5,6,15,16-tetrahydrobenzo[c]pyrido[4,3-j][1]azacyclododecine-1,14(2H,9H)-dione hydrochloride, 0.10 1,4-dioxane solvate] yielded an IC50 of 1590 nM. Work on `CCN(c1cccc2c1C/C=C/CN(C)Cc1cc(C)[nH]c(=O)c1CNC2=O)C1CCOCC1` [Example 10, (E)-11-(ethyl(tetrahydro-2H-pyran-4-yl)amino)-3,6-dimethyl-5,6,7,10,16,17-hexahydro-1H-benzo[h]pyrido[4,3-c][1,6]diazacyclotridecine-1,15(2H)-dione] yielded an IC50 of 1000 nM. Work on `CCN(c1cccc2c1CCCCOCc1cc(C)[nH]c(=O)c1CNC2=O)C1CCOCC1` [Example 11, 11-(ethyl(tetrahydro-2H-pyran-4-yl)amino)-3-methyl-7,8,9,10,16,17-hexahydrobenzo[h]pyrido[4,3-c][1,6]oxaazacyclotridecine-1,15(2H,5H)-dione] yielded an IC50 of 501 nM. For `CCN(c1cccc2c1C/C=C\COc1cc(C)[nH]c(=O)c1CNC2=O)C1CCOCC1` [Example 13, (Z)-10-(ethyl(tetrahydro-2H-pyran-4-yl)amino)-3-methyl-6,9,15,16-tetrahydro-1H-benzo[g]pyrido[4,3-b][1,5]oxaazacyclododecine-1,14(2H)-dione], the IC50 was 794 nM. In the case of `COc1cc(Cl)cc2c1C/C=C/CCc1cc(C)[nH]c(=O)c1CNC2=O` [Example 15, (E)-12-chloro-10-methoxy-3-methyl-5,6,15,16-tetrahydrobenzo[c]pyrido[4,3-j][1]azacyclododecine-1,14(2H,9H)-dione], the IC50 is reported as 501 nM. `CCN(c1cc(Cl)cc2c1C/C=C\CCc1cc(C)[nH]c(=O)c1CNC2=O)C1CCOCC1` [Example 16, (Z)-12-chloro-10-(ethyl(tetrahydro-2H-pyran-4-yl)amino)-3-methyl-5,6,15,16-tetrahydrobenzo[c]pyrido[4,3-j][1]azacyclododecine-1,14(2H,9H)-dione hydrochloride] gave an IC50 of 501 nM. `CCN(c1cccc2c1C/C=C\CC(C)c1cc(C)[nH]c(=O)c1CNC2=O)C1CCOCC1` (centres unmarked) [Example 22, (Z)-10-(ethyl(tetrahydro-2H-pyran-4-yl)amino)-3,5-dimethyl-5,6,15,16-tetrahydrobenzo[c]pyrido[4,3-j][1]azacyclododecine-1,14(2H,9H)-dione] showed an IC50 of 6310 nM. With `CCN(c1cccc2c1C/C=C/CC(C)c1cc(C)[nH]c(=O)c1CNC2=O)C1CCOCC1` (centres unmarked) [Example 23, (E)-10-(ethyl(tetrahydro-2H-pyran-4-yl)amino)-3,5-dimethyl-5,6,15,16-tetrahydrobenzo[c]pyrido[4,3-j][1]azacyclododecine-1,14(2H,9H)-dione] the IC50 was 126 nM. Compound `CCN(c1cccc2c1CCCCC(C)c1cc(C)[nH]c(=O)c1CNC2=O)C1CCOCC1` (centres unmarked) [Example 24, 10-(ethyl(tetrahydro-2H-pyran-4-yl)amino)-3,5-dimethyl-6,7,8,9,15,16-hexahydrobenzo[c]pyrido[4,3-j][1]azacyclododecine-1,14(2H,5H)-dione] has an IC50 of 631 nM.

— patent publication US20160122342A1, “ENHANCER OF ZESTE HOMOLOG 2 INHIBITORS” (GLAXOSMITHKLINE INTELLECTUAL PROPERTY (NO.2) LIMITED, priority 2013, published 2016)
